# Where “and” joins values, the source holds several entries; their conditions need not be identical. Equal entries are not always repeated. Inconclusive results and toxic doses are left out. Peptide text beside a SMILES is read from it. * marks the point of attachment. Trt = c1ccc(C(c2ccccc2)(c2ccccc2)*)cc1; Cbz = O=C(OCc1ccccc1)*
# System: BDF1 mice, B16 melanoma ip, median survival T/C
# Experiment: NCI In Vivo Anticancer Drug Screen. Data for tumor model B16 Melanoma (intraperitoneal) in B6D2F1 (BDF1) mice
# Details: endpoint: median survival time, higher = longer survival
# Outline: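 Read-out: survival or tumor size, given as treated/control ratio. Controls received vehicle only; animals bore transplantable tumors.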
# [1] = dose: 50.0 mg/kg/injection, schedule: Q01DX009 (ip), vehicle: saline with Tween-80
# [2] = dose: 100.0 mg/kg/injection, schedule: Q01DX009 (ip), vehicle: saline with Tween-80
# [3] = dose: 200.0 mg/kg/injection, schedule: Q01DX009 (ip), vehicle: saline with Tween-80
# [4] = dose: 12.5 mg/kg/injection, schedule: Q01DX009 (ip), vehicle: saline
# [5] = dose: 25.0 mg/kg/injection, schedule: Q01DX009 (ip), vehicle: saline
# [6] = dose: 50.0 mg/kg/injection, schedule: Q01DX009 (ip), vehicle: saline
# [7] = dose: 100.0 mg/kg/injection, schedule: Q01DX009 (ip), vehicle: saline
# [8] = dose: 100.0 mg/kg/injection, schedule: Q01DX009 (ip), vehicle: Klucel (hydroxypropylcellulose) (HPC)
# [9] = dose: 200.0 mg/kg/injection, schedule: Q01DX009 (ip), vehicle: Klucel (hydroxypropylcellulose) (HPC)
structure (smiles),measurement,setting,value
N[C@H](C(=O)O)[C@@H]1CC(Cl)=NO1,T/C,"dose: 0.25 mg/kg/injection, schedule: Q01DX009 (ip), vehicle: saline",93 % of control and 96 % of control and 102 % of control
same,T/C,"dose: 0.75 mg/kg/injection, schedule: Q01DX009 (ip), vehicle: saline",112 % of control
same,T/C,"dose: 1.5 mg/kg/injection, schedule: Q01DX009 (ip), vehicle: saline",110 % of control
same,T/C,"dose: 3.0 mg/kg/injection, schedule: Q01DX009 (ip), vehicle: saline",114 % of control
same,T/C,"dose: 6.0 mg/kg/injection, schedule: Q01DX009 (ip), vehicle: saline",156 % of control
same,T/C,"dose: 12.0 mg/kg/injection, schedule: Q01DX009 (ip), vehicle: saline",57 % of control
NC1=NC(=O)NC1(c1ccccc1)c1ccccc1,T/C,[1],98 % of control
same,T/C,[2],109 % of control
same,T/C,[3],97 % of control
same,T/C,"dose: 400.0 mg/kg/injection, schedule: Q01DX009 (ip), vehicle: saline with Tween-80",93 % of control
Cc1c2c(ccc3ccccc32)c[n+]2ccccc12,T/C,"dose: 1.56 mg/kg/injection, schedule: Q01DX009 (ip), vehicle: suspension in saline",98 % of control
same,T/C,"dose: 3.12 mg/kg/injection, schedule: Q01DX009 (ip), vehicle: suspension in saline",101 % of control
same,T/C,"dose: 6.25 mg/kg/injection, schedule: Q01DX009 (ip), vehicle: suspension in saline",106 % of control
same,T/C,"dose: 12.5 mg/kg/injection, schedule: Q01DX009 (ip), vehicle: suspension in saline",103 % of control
C/C(=C\c1ccccc1)C(=O)c1ccc(-c2ccccc2)cc1,T/C,"dose: 100.0 mg/kg/injection, schedule: Q04DX003 (ip), vehicle: Klucel (hydroxypropylcellulose) (HPC)",103 % of control
same,T/C,"dose: 200.0 mg/kg/injection, schedule: Q04DX003 (ip), vehicle: Klucel (hydroxypropylcellulose) (HPC)",95 % of control
same,T/C,"dose: 400.0 mg/kg/injection, schedule: Q04DX003 (ip), vehicle: Klucel (hydroxypropylcellulose) (HPC)",106 % of control
C[C@@H]1C[C@](O)([C@@H](C)Cl)C(=O)O[C@@H]2CCN3CC=C(COC(=O)[C@]1(C)O)[C@H]23,T/C,"dose: 5.5 mg/kg/injection, schedule: Q01DX009 (ip), vehicle: saline",97 % of control
same,T/C,"dose: 11.0 mg/kg/injection, schedule: Q01DX009 (ip), vehicle: saline",90 % of control
same,T/C,"dose: 22.0 mg/kg/injection, schedule: Q01DX009 (ip), vehicle: saline",111 % of control
C/C=C(\C)C(=O)OC1CC[N+]2([O-])CCC(COC(=O)/C(=C/C)CO)C12 (stereo not drawn),T/C,"dose: 18.8 mg/kg/injection, schedule: Q01DX009 (ip), vehicle: saline",102 % of control
same,T/C,"dose: 37.5 mg/kg/injection, schedule: Q01DX009 (ip), vehicle: saline",109 % of control
same,T/C,"dose: 75.0 mg/kg/injection, schedule: Q01DX009 (ip), vehicle: saline",107 % of control
same,T/C,"dose: 150.0 mg/kg/injection, schedule: Q01DX009 (ip), vehicle: saline",107 % of control
C/C=C1/CC(C)C(C)(O)C(=O)OCC2CCN3CCC(OC1=O)C23 (stereo not drawn),T/C,[4],109 % of control
same,T/C,[5],109 % of control
same,T/C,[6],102 % of control
same,T/C,[7],107 % of control
CC1(C)C2CCC1C(CO)C2 (stereo not drawn),T/C,"dose: 50.0 mg/kg/injection, schedule: Q01DX009 (ip), vehicle: Klucel (hydroxypropylcellulose) (HPC)",100 % of control
same,T/C,[8],103 % of control
same,T/C,[9],90 % of control
COc1ccc2c(Nc3ccc(NS(C)(=O)=O)cc3)c3ccccc3nc2c1,T/C,"dose: 1.87 mg/kg/injection, schedule: Q01DX009 (ip), vehicle: saline with Tween-80",163 % of control
same,T/C,"dose: 2.5 mg/kg/injection, schedule: Q01DX009 (ip), vehicle: saline with Tween-80",150 % of control
same,T/C,"dose: 3.75 mg/kg/injection, schedule: Q01DX009 (ip), vehicle: saline with Tween-80",163 % of control
same,T/C,"dose: 5.0 mg/kg/injection, schedule: Q01DX009 (ip), vehicle: saline with Tween-80",161 % of control
same,T/C,"dose: 5.3 mg/kg/injection, schedule: Q01DX009 (ip), vehicle: saline with Tween-80",188 % of control
same,T/C,"dose: 7.5 mg/kg/injection, schedule: Q01DX009 (ip), vehicle: saline with Tween-80",193 % of control
same,T/C,"dose: 8.0 mg/kg/injection, schedule: Q01DX009 (ip), vehicle: saline with Tween-80",188 % of control
same,T/C,"dose: 12.0 mg/kg/injection, schedule: Q01DX009 (ip), vehicle: saline with Tween-80",188 % of control
same,T/C,[4],172 % of control
same,T/C,"dose: 50.0 mg/kg/injection, schedule: Q01DX001 (ip), vehicle: saline sonified",175 % of control
same,T/C,"dose: 100.0 mg/kg/injection, schedule: Q01DX001 (ip), vehicle: saline sonified",194 % of control
C=C(C)C(=O)OC1C/C(CO)=C\C(O)C/C(C)=C/C2OC(=O)C(=C)C21 (stereo not drawn),T/C,"dose: 1.25 mg/kg/injection, schedule: Q01DX009 (ip), vehicle: saline + alcohol",110 % of control
same,T/C,"dose: 2.5 mg/kg/injection, schedule: Q01DX009 (ip), vehicle: saline + alcohol",90 % of control
same,T/C,"dose: 5.0 mg/kg/injection, schedule: Q01DX009 (ip), vehicle: saline + alcohol",92 % of control
same,T/C,"dose: 10.0 mg/kg/injection, schedule: Q01DX009 (ip), vehicle: saline + alcohol",100 % of control
same,T/C,"dose: 20.0 mg/kg/injection, schedule: Q01DX009 (ip), vehicle: saline + alcohol",91 % of control
same,T/C,"dose: 40.0 mg/kg/injection, schedule: Q01DX009 (ip), vehicle: saline + alcohol",95 % of control
COc1cccc2c1C(=O)c1c(O)c3c(c(O)c1C2=O)C[C@@](O)(C(C)O)C[C@@H]3OC1CC(N2CCOCC2)C(O)C(C)O1 (stereo partly drawn),T/C,"dose: 62.5 micrograms/kg/injection, schedule: Q01DX001 (ip), vehicle: water",100 % of control
same,T/C,"dose: 125.0 micrograms/kg/injection, schedule: Q01DX001 (ip), vehicle: water",104 % of control
same,T/C,"dose: 250.0 micrograms/kg/injection, schedule: Q01DX001 (ip), vehicle: water",112 % of control
CC(=O)OC1CCC(C(C)(C)C)CC1 (stereo not drawn),T/C,[1],113 % of control
same,T/C,[2],91 % of control
Cc1ccc(S(=O)(=O)Nc2ccccc2-c2nc3c(Cl)ccc(Cl)c3c(=O)o2)cc1,T/C,[8],105 % of control
same,T/C,[9],92 % of control
COc1cccc2c1C(=O)c1c(O)c3c(c(O)c1C2=O)CC(O)(/C(C)=N/NC(=O)CCC(=O)N/N=C(\C)C1(O)Cc2c(O)c4c(c(O)c2C(OC2CC(N)C(O)C(C)O2)C1)C(=O)c1c(OC)cccc1C4=O)CC3OC1CC(N)C(O)C(C)O1 (stereo not drawn),T/C,"dose: 4.0 mg/kg/injection, schedule: Q01DX001 (ip), vehicle: water",163 % of control
same,T/C,"dose: 8.0 mg/kg/injection, schedule: Q01DX001 (ip), vehicle: water",165 % of control and 168 % of control and 172 % of control
same,T/C,"dose: 16.0 mg/kg/injection, schedule: Q01DX001 (ip), vehicle: water",189 % of control and 292 % of control
same,T/C,"dose: 32.0 mg/kg/injection, schedule: Q01DX001 (ip), vehicle: water",123 % of control and 293 % of control and 313 % of control
same,T/C,"dose: 64.0 mg/kg/injection, schedule: Q01DX001 (ip), vehicle: water",315 % of control
CN(C)CCOC(=O)COc1ccc(Cl)cc1,T/C,[5],104 % of control
same,T/C,[6],104 % of control
same,T/C,[7],109 % of control
same,T/C,"dose: 200.0 mg/kg/injection, schedule: Q01DX009 (ip), vehicle: saline",102 % of control
same,T/C,"dose: 400.0 mg/kg/injection, schedule: Q01DX009 (ip), vehicle: saline",97 % of control
O=C(O)c1ccccc1C(=O)Nc1ccc(Cl)cc1,T/C,[2],105 % of control
same,T/C,[3],94 % of control
COC(=O)C(CSC(c1ccccc1)(c1ccccc1)c1ccccc1)NC(=O)C(CC(N)=O)NC(=O)OCc1ccccc1 (stereo not drawn) (Cbz-Asn-Cys(Trt)-OMe; configuration not given here),T/C,"dose: 12.5 mg/kg/injection, schedule: Q01DX009 (ip), vehicle: distilled water + Tween-80",108 % of control and 110 % of control
same,T/C,"dose: 25.0 mg/kg/injection, schedule: Q01DX009 (ip), vehicle: distilled water + Tween-80",102 % of control and 117 % of control
same,T/C,"dose: 50.0 mg/kg/injection, schedule: Q01DX009 (ip), vehicle: distilled water + Tween-80",109 % of control
same,T/C,"dose: 100.0 mg/kg/injection, schedule: Q01DX009 (ip), vehicle: distilled water + Tween-80",113 % of control
same,T/C,"dose: 200.0 mg/kg/injection, schedule: Q01DX009 (ip), vehicle: distilled water + Tween-80",116 % of control
NC(N)=Nc1ccc(C(=O)Oc2ccc([N+](=O)[O-])cc2Cl)cc1,T/C,"dose: 12.5 mg/kg/injection, schedule: Q01DX009 (ip), vehicle: saline with Tween-80",97 % of control
same,T/C,"dose: 25.0 mg/kg/injection, schedule: Q01DX009 (ip), vehicle: saline with Tween-80",101 % of control
same,T/C,[1],93 % of control
CCCc1c(Cl)nc(Cl)nc1Cl,T/C,"dose: 6.25 mg/kg/injection, schedule: Q01DX009 (ip), vehicle: Klucel (hydroxypropylcellulose) (HPC)",110 % of control
same,T/C,"dose: 12.5 mg/kg/injection, schedule: Q01DX009 (ip), vehicle: Klucel (hydroxypropylcellulose) (HPC)",103 % of control
same,T/C,"dose: 25.0 mg/kg/injection, schedule: Q01DX009 (ip), vehicle: Klucel (hydroxypropylcellulose) (HPC)",101 % of control and 109 % of control

# — PubChem BioAssay AID192 (DTP/NCI, 2004)
